The term IC50 denotes the concentration needed to halve the response being measured.

This test deals with Human RSK2 (Homo sapiens (Human), UniProt P51812). Briefly: Human RSK2 Assay (Kinase Glo Plus, residual ATP). As to conditions: 0.75 nM His-RSK2, 0.75 μM ATP, 1.0 μM S6 Kinase/RSK Substrate Peptide 1. Type of test: biochemical. As for the experimental part: Experimental Method A: Human RSK2 Assay
Human RSK2, sequence (P51812 whole entry): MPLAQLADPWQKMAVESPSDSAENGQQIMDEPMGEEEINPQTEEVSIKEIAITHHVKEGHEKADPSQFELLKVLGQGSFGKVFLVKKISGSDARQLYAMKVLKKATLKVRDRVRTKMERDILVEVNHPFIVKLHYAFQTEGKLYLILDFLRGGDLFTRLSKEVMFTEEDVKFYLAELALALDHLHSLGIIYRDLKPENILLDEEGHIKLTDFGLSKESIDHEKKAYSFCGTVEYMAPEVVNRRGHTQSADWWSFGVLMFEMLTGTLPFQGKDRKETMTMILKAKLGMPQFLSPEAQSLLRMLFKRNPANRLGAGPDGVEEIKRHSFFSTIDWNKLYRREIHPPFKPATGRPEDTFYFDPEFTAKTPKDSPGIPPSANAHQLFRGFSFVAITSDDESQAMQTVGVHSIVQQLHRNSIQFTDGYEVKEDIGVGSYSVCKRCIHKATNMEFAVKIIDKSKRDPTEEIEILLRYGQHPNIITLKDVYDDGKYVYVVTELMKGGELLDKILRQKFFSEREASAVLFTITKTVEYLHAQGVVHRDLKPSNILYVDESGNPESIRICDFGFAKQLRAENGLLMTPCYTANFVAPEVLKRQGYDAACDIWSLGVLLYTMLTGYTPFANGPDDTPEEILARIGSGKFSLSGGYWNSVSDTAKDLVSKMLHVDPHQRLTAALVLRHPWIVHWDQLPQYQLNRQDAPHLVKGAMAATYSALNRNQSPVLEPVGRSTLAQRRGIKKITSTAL
Compounds are assessed for their ability to inhibit the phosphorylation of a substrate peptide by RSK2.
Human RSK2 protein, purchased from Invitrogen, is used to measure kinase activity utilizing Kinase Glo Plus (Promega) a homogeneous assay technology, which uses a luciferin-luciferase based ATP detection reagent to quantify residual ATP. The assay is performed using 0.75 nM His-RSK2, 0.75 μM ATP and 1.0 μM S6 Kinase/RSK Substrate Peptide 1 (Upstate, catalog #12-124), in assay buffer consisting of 25 mM HEPES, pH 7.5, 10 mM MgCl2, 5 mM MnCl2, 50 mM KCl, 0.2% BSA, 0.01% CHAPS, 100 μM Na3VO4, 0.5 mM DTT, and 1% DMSO. Solutions of test compounds at various concentrations are prepared by 1:3 fold serial dilution of a 1 mM solution of compound in DMSO. The DMSO solutions are further diluted with assay buffer to a final concentration of DMSO of 5%.
The assay is performed in a 384 well, white, non-binding plate (Corning, catalogue #3574). Solutions of test compounds (10 μL) are transferred to a dry assay plate, followed by addition of 20 μL kinase and 20 μL ATP+Substrate Peptide 1 described above. The kinase reaction mixture is incubated for 90 minutes at 28° C. followed by addition of 30 μL of ATP detection reagent for 15 minutes at room temperature. The relative light unit (RLU) signal is measured on a LJL Analyst (Molecular Devices) in luminescence mode using 384 aperture. The RLU signals were converted to percent of control (POC) values using the formula: POC=100*(BCTRL−Signal)/(BCTRL−PCTRL), where Signal is the test well RLU signal, BCTRL is the average of background (negative control), which consists of ATP+peptide and compound buffer, well signals on the plate, and PCTRL is the average of positive control, which consists of kinase, ATP+peptide, and compound buffer, well signals on the plate. For concentration-responsive compounds, POC as a function of test compound concentration are fitted to a 4-parameter logistic equation of the form: Y=A+(B−A)/[1+(x/C)^D], where A, B, C, and D are fitted parameters (parameter B is fixed at zero POC), and x and y are the independent and dependent variables, respectively. The IC50 (50% inhibitory concentration) is determined as the inflection point parameter, C. Experimental Method B: Human RSK2 Trans-Reporter Assay
On the technique in general: Kinase-Glo reads ATP consumption through a luciferase reaction.
Regarding `Cn1cc(NC(=O)c2ccc3nc4n(c3c2)CCCNC4=O)cn1` [Example 13, N-(1-methyl-1H-pyrazol-4-yl)-1-oxo-2,3,4,5-tetrahydro-1H-[1,4]diazepino[1,2-a]benzimidazole-8-carboxamide], the IC50 amounted to 320 nM.

For the compound `Cn1cc(NC(=O)c2ccc3nc4n(c3c2)C(C)(C)CCNC4=O)cn1` [Example 14, 5,5-dimethyl-N-(1-methyl-1H-pyrazol-4-yl)-1-oxo-2,3,4,5-tetrahydro-1H-[1,4]diazepino[1,2-a]benzimidazole-8-carboxamide], the half-inhibitory concentration (IC50) worked out at 4000 nM.

As to `CCn1c(NC(=O)c2ccc3nc4n(c3c2)CCCNC4=O)nc2ccc(Cl)nc21` [Example 15, N-(5-chloro-3-ethyl-3H-imidazo[4,5-b]pyridin-2-yl)-1-oxo-2,3,4,5-tetrahydro-1H-[1,4]diazepino[1,2-a]benzimidazole-8-carboxamide], the IC50 came out at 45 nM.

`CN(C)CCCn1c(NC(=O)c2ccc3nc4n(c3c2)CCCNC4=O)nc2ccccc21` [Example 16, N-{1-[3-(dimethylamino)propyl]-1H-benzimidazol-2-yl}-1-oxo-2,3,4,5-tetrahydro-1H-[1,4]diazepino[1,2-a]benzimidazole-8-carboxamide]: the IC50 was 92 nM.

In the case of `CCn1c(NC(=O)c2ccc3nc4n(c3c2)CCCNC4=O)nc2cccnc21` [Example 17, N-(3-ethyl-3H-imidazol[4,5-b]pyridin-2-yl)-1-oxo-2,3,4,5-tetrahydro-1H-[1,4]diazepino[1,2-a]benzimidazole-8-carboxamide], the IC50 was 23 nM.

Take `CC(C)n1c(NC(=O)c2ccc3nc4n(c3c2)C(C)(C)CCNC4=O)nc2ccccc21` [Example 18, 5,5-dimethyl-1-oxo-N-[1-(propan-2-yl)-1H-benzimidazol-2-yl]-2,3,4,5-tetrahydro-1H-[1,4]diazepino[1,2-a]benzimidazole-8-carboxamide]: the IC50 is 4.7 nM.

Regarding `O=C(Nc1cc(-c2ccccc2)no1)c1ccc2nc3n(c2c1)CCCNC3=O` [Example 19, 1-oxo-N-(3-phenyl-1,2-oxazol-5-yl)-2,3,4,5-tetrahydro-1H-[1,4]diazepino[1,2-a]benzimidazole-8-carboxamide], the half-inhibitory concentration (IC50) worked out at 290 nM.

As to `Cc1cc(NC(=O)c2ccc3nc4n(c3c2)CCCNC4=O)no1` [Example 20, N-(5-methyl-1,2-oxazol-3-yl)-1-oxo-2,3,4,5-tetrahydro-1H-[1,4]diazepino[1,2-a]benzimidazole-8-carboxamide], the IC50 came out at 1550 nM.

Regarding `CC(C)(C)c1cc(NC(=O)c2ccc3nc4n(c3c2)CCCNC4=O)no1` [Example 21, N-(5-tert-butyl-1,2-oxazol-3-yl)-1-oxo-2,3,4,5-tetrahydro-1H-[1,4]diazepino[1,2-a]benzimidazole-8-carboxamide], the concentration for half-maximal inhibition (IC50) amounted to 2000 nM.

For `O=C(Nc1cccc(-c2c[nH]cn2)c1)c1ccc2nc3n(c2c1)CCCNC3=O` [Example 22, N-[3-(1H-imidazol-4-yl)phenyl]-1-oxo-2,3,4,5-tetrahydro-1H-[1,4]diazepino[1,2-a]benzimidazole-8-carboxamide], the IC50 came to 1700 nM.

Turning to `O=C(Nc1cnc2ccccc2c1)c1ccc2cc3n(c2n1)CCCNC3=O` [Example 23, 6-oxo-N-(quinolin-3-yl)-7,8,9,10-tetrahydro-6H-pyrido[3′,2′:4,5]pyrrolo[1,2-a][1,4]diazepine-2-carboxamide], the IC50 is 9.2 nM.

Regarding `Cc1nc(-c2cccc(NC(=O)c3ccc4cc5n(c4n3)CCCNC5=O)c2)cs1` [Example 24, N-[3-(2-methyl-1,3-triazol-4-yl)phenyl]-6-oxo-7,8,9,10-tetrahydro-6H-pyrido[3′,2′:4,5]pyrrolo[1,2-a][1,4]diazepine-2-carboxamide], the IC50 amounted to 56 nM.

For the compound `O=C(Nc1cccc(F)c1)c1ccc2cc3n(c2n1)CCCNC3=O` [Example 25, N-(3-fluorophenyl)-6-oxo-7,8,9,10-tetrahydro-6H-pyrido[3′,2′:4,5]pyrrolo[1,2-a][1,4]diazepine-2-carboxamide], the IC50 was 20 nM.

As for `NC(=O)c1ccccc1NC(=O)c1ccc2cc3n(c2n1)CCCNC3=O` [Example 26, N-(2-carbamoylphenyl)-6-oxo-7,8,9,10-tetrahydro-6H-pyrido[3′,2′:4,5]pyrrolo[1,2-a][1,4]diazepine-2-carboxamide], the IC50 amounted to 2.3 nM.

Take `O=C(Nc1cccnc1)c1ccc2cc3n(c2n1)CCCNC3=O` [Example 27, 6-oxo-N-(pyridin-3-yl)-7,8,9,10-tetrahydro-6H-pyrido[3′,2′:4,5]pyrrolo[1,2-a][1,4]diazepine-2-carboxamide]: the concentration for half-maximal inhibition (IC50) is 37 nM.

On to `CCOC(=O)c1nc(NC(=O)c2ccc3cc4n(c3n2)CCCNC4=O)cn1C` [Example 28, ethyl 1-methyl-4-{[(6-oxo-7,8,9,10-tetrahydro-6H-pyrido[3′,2′:4,5]pyrrolo[1,2-a][1,4]diazepin-2-yl)carbonyl]amino}-1H-imidazole-2-carboxylate], for which the half-inhibitory concentration (IC50) was determined as 90 nM.

On to `CC(C)n1ncc2cc(NC(=O)c3ccc4cc5n(c4n3)C(C)CCNC5=O)cnc21` (stereo not shown) [Example 29, 10-methyl-6-oxo-N-[1-(propan-2-yl)-1H-pyrazolo[3,4-b]pyridin-5-yl]-7,8,9,10-tetrahydro-6H-pyrido[3′,2′:4,5]pyrrolo[1,2-a][1,4]diazepine-2-carboxamide], for which the IC50 turned out to be 2.1 nM.

As to `CC(C)n1ncc2cc(NC(=O)c3ccc4cc5n(c4n3)CCCNC5=O)cnc21` [Example 30, 6-oxo-N-[1-(propan-2-yl)-1H-pyrazolo[3,4-b]pyridin-5-y]-7,8,9,10-tetrahydro-6H-pyrido[3′,2′:4,5]pyrrolo[1,2-a][1,4]diazepine-2-carboxamide], the IC50 worked out at 25 nM.

In the case of `CC(C)n1ncc2cc(NC(=O)c3ccc4cc5n(c4n3)CC(C)(C)CNC5=O)cnc21` [Example 31, 9,9-dimethyl-6-oxo-N-[1-(propan-2-yl)-1H-pyrazolo[3,4-b]pyridin-5-yl]-7,8,9,10-tetrahydro-6H-pyrido[3′,2′:4,5]pyrrolo[1,2-a][1,4]diazepine-2-carboxamide], the IC50 stood at 105 nM.

As for `CC1CCNC(=O)c2cc3ccc(C(=O)Nc4cnc5c(cnn5C5CCOCC5)c4)nc3n21` (stereo not shown) [Example 32, 10-methyl-6-oxo-N-[1-(tetrahydro-2H-pyran-4-yl)-1H-pyrazolo[3,4-b]pyridin-5-yl]-7,8,9,10-tetrahydro-6H-pyrido[3′,2′:4,5]pyrrolo[1,2-a][1,4]diazepine-2-carboxamide], the IC50 is 2.3 nM.

As to `O=C(Nc1cnc2c(cnn2C2CCOCC2)c1)c1ccc2cc3n(c2n1)CCCNC3=O` [Example 33, 6-oxo-N-[1-(tetrahydro-2H-pyran-4-yl)-1H-pyrazolo[3,4-b]pyridin-5-yl]-7,8,9,10-tetrahydro-6H-pyrido[3′,2′:4,5]pyrrolo[1,2-a][1,4]diazepine-2-carboxamide], the IC50 came out at 20 nM.

In the case of `CC1(C)CNC(=O)c2cc3ccc(C(=O)Nc4cnc5c(cnn5C5CCOCC5)c4)nc3n2C1` [Example 34, 9,9-dimethyl-6-oxo-N-[1-(tetrahydro-2H-pyran-4-yl)-1H-pyrazolo[3,4-b]pyridin-5-yl]-7,8,9,10-tetrahydro-6H-pyrido[3′,2′:4,5]pyrrolo[1,2-a][1,4]diazepine-2-carboxamide], the 50% inhibitory concentration (IC50) was 62 nM.

Regarding `CC1CCNC(=O)c2cc3ccc(C(=O)Nc4cnc5c(cnn5CC5CCOC5)c4)nc3n21` (stereo not shown) [Example 35, 10-methyl-6-oxo-N-[1-(tetrahydrofuran-3-ylmethyl)-1H-pyrazolo[3,4-b]pyridin-5-yl]-7,8,9,10-tetrahydro-6H-pyrido[3′,2′:4,5]pyrrolo[1,2-a][1,4]diazepine-2-carboxamide], the IC50 was determined as 1.6 nM.

As for `O=C(Nc1cnc2c(cnn2CC2CCOC2)c1)c1ccc2cc3n(c2n1)CCCNC3=O` (stereo not shown) [Example 36, 6-oxo-N-[1-(tetrahydrofuran-3-ylmethyl)-1H-pyrazolo[3,4-b]pyridin-5-yl]-7,8,9,10-tetrahydro-6H-pyrido[3′,2′:4,5]pyrrolo[1,2-a][1,4]diazepine-2-carboxamide], the half-inhibitory concentration (IC50) worked out at 13 nM.

Take `CC1(C)CNC(=O)c2cc3ccc(C(=O)Nc4cnc5c(cnn5CC5CCOC5)c4)nc3n2C1` (stereo not shown) [Example 37, 9,9-dimethyl-6-oxo-N-[1-(tetrahydrofuran-3-ylmethyl)-1H-pyrazolo[3,4-b]pyridin-5-yl]-7,8,9,10-tetrahydro-6H-pyrido[3′,2′:4,5]pyrrolo[1,2-a][1,4]diazepine-2-carboxamide]: the IC50 was 25 nM.
